Entries after “also recorded” stand apart in the source; their conditions may differ. Like-named read-outs stand apart in the source and are kept apart here.
How the values were obtained:
[1] = test system: cortical neurons and glia; experiment: Chemical hypoxia (azide) and glucose deprivation in cortical cell cultures, medium LDH; assay type: cell-based, Swiss Webster mice; details: for effect on azide neurotoxicity in glucose-free buffer (neuronal death): 3 mM azide 30 min with compound, LDH 21-25 h later; for effect on potentiation of azide toxicity/glucose deprivation by GSH: 3 mM azide plus 100 μM GSH plus compound; for effect on potentiation of azide toxicity/glucose deprivation by GSH / effect on potentiation of azide toxicity by mercaptoethanol: 30 min; for effect on potentiation of azide toxicity by mercaptoethanol: 3 mM azide plus 100 μM mercaptoethanol plus compound
Method: Primary cultures containing both cortical neurons and glia were prepared from gravid Swiss Webster mice as previously described. (Regan , R. F. and Choi, D. W., The effect of NMDA, AMPA/kainate, and calcium channel antagonists on traumatic cortical neuronal injury in culture, Brain Res, 633: 236-242, 1994). Plating medium consisted of Eagle's minimal essential medium (MEM), 5% equine serum, 5% fetal bovine serum, 2 mM glutamine, and 23 mM glucose. Cultures were incubated in 5% CO2 at 37° C. Two-thirds of the culture medium was exchanged twice weekly with MEM containing 10% equine serum, 2 mM glutamine, and 23 mM glucose. Glial cell division was inhibited at 4-7 days in vitro with 10^−5 M cytosine arabinoside.
Chemical hypoxia was induced with 3 mM azide, which unlike cyanide is not volatile and has little effect on copper-zinc and manganese superoxide dismutases at low millimolar concentrations. (Misra, H. P. and Fridovich, I., Inhibition of superoxide dismutases by azide, Arch Biochem Biophys 189: 317-322, 1978). Experiments were conducted at 13-16 days in vitro in a glucose-free buffer containing 116 mM NaCl, 5.4 mM KCl, 1.8 mM CaCl2, 1 mM NaH2PO4, 26.2 mM NaHCO3, 0.8 mM MgSO4, and amino acids (MEM amino acids, Sigma Chemical Co., St. Louis, Mo., U.S.A.). After incubation for 30-90 min at 37° C. in 5% CO2, cultures were washed into MEM containing 10 mM glucose and were returned to the incubator.
Cell death was estimated 21-25 h after azide exposure by inspection under phase-contrast microscopy, and was quantified by assaying lactate dehydrogenase (LDH) activity in the medium, as previously described. (Regan, R. F. and Panter, S. S., Traumatic neuronal injury in cortical cell culture is attenuated by 21-aminosteroids, Brain Res, 682: 144-150, 1995). Medium LDH in this culture system is an accurate marker of neuronal death that correlates well with cell counts. (Koh, J. Y. and Choi, D. W., Vulnerability of cultured cortical neurons to damage by excitotoxins: Differential susceptibility of neurons containing NADPH-diaphorase, J Neurosci 8: 2153-2163, 1988). […] (Koh, J. Y. and Choi, D. W., 1988). The LDH activity in the medium of sister cultures exposed to sham wash alone was subtracted from all values to obtain the LDH signal associated specifically with neurotoxin exposure.
Data were analyzed by one-way analysis of variance. Differences between groups and a single mean were assessed with the Dunnett multiple comparisons test; when groups were compared to more than one mean, the Tukey-Kramer post hoc test was used.

[2] = test system: murine cortical cell cultures (neurons), NMDA receptor; experiment: NMDA neurotoxicity in murine cortical cell cultures, medium LDH; assay type: cell-based, Swiss Webster mice; details: for effect on potentiation of NMDA neurotoxicity by mercaptoethanol: NMDA plus 1 mM mercaptoethanol plus equimolar compound; for effect on potentiation of NMDA neurotoxicity by GSH: NMDA plus GSH plus compound; for effect on NMDA neurotoxicity (neuronal death, medium LDH): compound added with low micromolar NMDA, 20-25 h
Method: Cultures were incubated in 5% CO2 at 37° C.
Experiments were conducted at 13-15 days in vitro.

GSH binding sites = details: cited from earlier work
cortical cell culture = details: low micromolar concentrations; cited from earlier work
native NMDA receptor = target: T1, native NMDA receptor (Rattus norvegicus, UniProt P35439); details: cited from earlier work
T1 construct: host or cells: cultured forebrain, cortical or retinal neurons (endogenous receptor)

[3] = test system: NMDA receptor-mediated neurotoxicity; details: cited from earlier work
[4] = test system: murine cortical cell cultures; details: millimolar concentrations, 20-25 h, 0 μM NMDA
Method: After halothane anesthesia and cervical dislocation, cortical hemispheres were removed and incubated in 0.075% (wt/vol) acetylated trypsin (Sigma T-6763) for 1 h at 37° C. Tissue was dissociated by multiple passages through a narrow bore (flamed) Pasteur pipette, and the cell suspension was plated on confluent glial cultures at a density of 2.25-2.5 hemispheres per 24 well plate.
Experiments were conducted at 13-15 days in vitro. Cultures were exposed to excitatory amino acids in serum-free MEM containing 10 mM glucose.

In the case of `O[C@H](CS)[C@H](O)CS` (racemic) [dithiothreitol], the “effect on azide neurotoxicity in glucose-free buffer (neuronal death)” value (from here on “effect … in glucose-free buffer (neuronal death)”) [1] is reported as “concentration-toxicity profile that was similar to GSH”.

With `C[C@]12N[C@H](Cc3ccccc31)c1ccccc12` [MK-801] the LDH release ([2]; 8 μM NMDA plus GSH plus MK-801, scaled to 300 μM NMDA (=100)) was −1.24±1.58%, the “cell death due to 8 μM NMDA plus GSH” value ([2]; 8 μM NMDA plus GSH plus compound) was “completely blocked” and the “effect on potentiation of azide toxicity/glucose deprivation by GSH” value [1] was “blocked”.

With `NS(=O)(=O)c1cccc2c1c([N+](=O)[O-])cc1[nH]c(=O)c(=O)[nH]c12` [NBQX, 1,2,3,4-tetrahydro-6-nitro-2,3-dioxo-benzo[f]quinoxaline-7-sulfonamide] the “effect on potentiation of azide toxicity/glucose deprivation by GSH” value [1] was “not and no effect”.

For `CN[C@H](CC(=O)O)C(=O)O` [NMDA, N-methyl-D-aspartate], the “neuronal death by NMDA” value ([2]; 24 μM NMDA) was “widespread neuronal death” and the “neuronal death by NMDA” value ([2]; 300 μM NMDA, sister cultures (=100)) was “essentially complete neuronal death without injuring glia”.

For `CCCCCCSC[C@H](NC(=O)CC[C@H](N)C(=O)O)C(=O)NCC(=O)O` [SHG, S-hexylglutathione], the “effect on potentiation of NMDA neurotoxicity by (sulfhydryl) reducing agents” value (“effect … (sulfhydryl) reducing agents” for short) [2] was “antagonized”, the “effect on potentiation of NMDA neurotoxicity by mercaptoethanol” value [2] was “blocked the effect of mercaptoethanol” and the “effect on potentiation of NMDA neurotoxicity by mercaptoethanol” value ([2]; listed as S-hexylglutathione) was “completely blocked”. For the same molecule, the “effect on potentiation of NMDA neurotoxicity by GSH” value [2] was “completely blocked”, the “effect on potentiation of NMDA neurotoxicity by GSH” value ([2]; listed as S-hexylglutathione) was “completely blocked; also recorded: antagonized the effect of GSH” and the “effect on NMDA neurotoxicity (neuronal death, medium LDH)” value (“effect … (neuronal death, medium LDH)” below) [2] was “no significant effect; also recorded: did not attenuate NMDA neurotoxicity per se”. For the same molecule, the “effect … (neuronal death, medium LDH)” value ([2]; listed as S-hexylglutathione) was “inactive per se”, the “effect … (sulfhydryl) reducing agents” value ([2]; listed as S-hexylglutathione) was “blocked the potentiation” and the “effect on glutathione binding” value (GSH binding sites; listed as S-hexylglutathione) was “displace glutathione binding; also recorded: selectively inhibited”. For the same molecule, the “effect … in glucose-free buffer (neuronal death)” value [1] was “ineffective”, the “effect … in glucose-free buffer (neuronal death)” value ([1]; listed as S-hexylglutathione) was “not increased” and the “effect on potentiation of azide toxicity/glucose deprivation by GSH” value [1] was “attenuates”. For the same molecule, the “effect on potentiation of azide toxicity by mercaptoethanol” value [1] was “attenuates” and the “neuroprotection against azide plus GSH or mercaptoethanol” value (“neuroprotection” below) ([1]; compound at 1-3 mM) was “decreasing neuronal death moderately”.

With `CSC[C@H](NC(=O)CC[C@H](N)C(=O)O)C(=O)NCC(=O)O` [SMG, S-methylglutathione] the “effect … (sulfhydryl) reducing agents” value [2] was “blocked the potentiation”, the “effect on potentiation of NMDA neurotoxicity by GSH” value [2] was “blocks the potentiation; also recorded: completely blocked; also recorded: antagonized the effect of GSH” and the “effect … (neuronal death, medium LDH)” value [2] was “inactive per se”. The “effect on glutathione binding” value (GSH binding sites) was “displace glutathione binding”.

In the case of `CCN(CC)c1ccc(N(CC)CC)c(N2CCN(CC(=O)[C@H]3[C@H](C)C[C@H]4[C@@H]5CCC6=CC(=O)C=C[C@]6(C)C5=CC[C@@]43C)CC2)n1.Cl` [U74500A], the “effect on potentiation of NMDA neurotoxicity by GSH” value [2] is given as “GSH also potentiated injury in the presence” and the “effect on hemoglobin toxicity” value (cortical cell culture) is given as “blocks hemoglobin toxicity”.

For `[N-]=[N+]=[N-]` [azide], the “toxicity of azide alone” value ([1]; 3 mM azide in glucose-free medium, 30 minutes) was “tolerated by most neurons”.

For `N[C@@H](CS)C(=O)O` [cysteine], the “effect on glutathione binding” value (GSH binding sites) is given as “selectively inhibited”.

In the case of `N[C@@H](CCC(=O)O)C(=O)O` [glutamate], the “effect on glutathione binding” value (GSH binding sites) is listed as “not”.

With oxidized glutathione [GSSG] the “effect … (sulfhydryl) reducing agents” value [2] was “antagonized”, the “effect on potentiation of NMDA neurotoxicity by mercaptoethanol” value [2] was “completely blocked; also recorded: blocked the effect of mercaptoethanol” and the “effect on potentiation of NMDA neurotoxicity by mercaptoethanol” value ([2]; listed as oxidized glutathione) was “blocked”. For the same molecule, the “effect … (neuronal death, medium LDH)” value [2] was “no significant effect; also recorded: did not attenuate NMDA neurotoxicity per se”, the “effect on native NMDA receptor responses” value (native NMDA receptor) was “inhibitory” and the “effect on NMDA neurotoxicity” value [3] was “attenuated NMDA neurotoxicity”. The “toxicity of compound alone” value [4] was “nontoxic”, the “effect … in glucose-free buffer (neuronal death)” value [1] was “ineffective; also recorded: not increased” and the “effect on potentiation of azide toxicity/glucose deprivation by GSH” value [1] was “most neurons have survived; also recorded: attenuates”. The “effect on potentiation of azide toxicity by mercaptoethanol” value [1] was “attenuates”, the “effect on neuronal death induced by prolonged azide exposure” value ([1]; azide 60-90 min in the absence of GSH) was “no significant effect” and the “neuroprotection” value ([1]; compound at 1-3 mM) was “robust effect”. For the same molecule, the “neuroprotection” value ([1]; equimolar compound (100 μM)) was “weak and somewhat variable neuroprotection”.

B1: catalase: catalase, added at a concentration sufficient to inhibit the neurotoxicity of the pro-oxidant hemoglobin (protein, UniProt P00432 2-527, looked up)
Catalase: ADNRDPASDQMKHWKEQRAAQKPDVLTTGGGNPVGDKLNSLTVGPRGPLLVQDVVFTDEMAHFDRERIPERVVHAKGAGAFGYFEVTHDITRYSKAKVFEHIGKRTPIAVRFSTVAGESGSADTVRDPRGFAVKFYTEDGNWDLVGNNTPIFFIRDALLFPSFIHSQKRNPQTHLKDPDMVWDFWSLRPESLHQVSFLFSDRGIPDGHRHMNGYGSHTFKLVNANGEAVYCKFHYKTDQGIKNLSVEDAARLAHEDPDYGLRDLFNAIATGNYPSWTLYIQVMTFSEAEIFPFNPFDLTKVWPHGDYPLIPVGKLVLNRNPVNYFAEVEQLAFDPSNMPPGIEPSPDKMLQGRLFAYPDTHRHRLGPNYLQIPVNCPYRARVANYQRDGPMCMMDNQGGAPNYYPNSFSAPEHQPSALEHRTHFSGDVQRFNSANDDNVTQVRTFYLKVLNEEQRKRLCENIAGHLKDAQLFIQKKAVKNFSDVHPEYGSRIQALLDKYNEEKPKNAVHTYVQHGSHLSAREKANL
For B1, the “effect on potentiation of NMDA neurotoxicity by GSH” value [2] was “No effect was observed”.
